Converted amounts (≈) assume the structure as drawn. Read-outs that look alike come from different tables or passages of the source.
What was measured:
[1] = test system: A2780 (ovarian cancer); assay: cells; format: cell-based; settings: CCK8, 48 h; for IC50: Homo sapiens, A2780
Protocol: (§1) Different types of cells were cultured with complete media (RPMI1640 (DMEM high sugar medium)+10% fetal bovine serum+1XP/S+sodium pyruvate 1 mM solution) in an incubator at 37° C. and 5% CO2 until the cells grew to a sufficient number, and the cells were collected, centrifuged at 1,000 g for 5 min, resuspended with an appropriate volume of a 10% RMPI1640 (DMEM high sugar medium) medium and counted. In a 96-well culture plate, 100 μL of cell culture fluid containing different concentrations of drugs was added, control wells (0.1% DMSO) with only corresponding drug solvents without drugs, as well as blank wells (Blank) with only the medium but without cells were set, and three parallel wells were set in each group. After that, the cells after cell counting were inoculated onto 96-well culture plates, with 100 μL of cell suspension per well, and an inoculation concentration of the cells was 5,000 cells (100 μL)/well. The plates were then cultured in a CO2 (5%) incubator at 37° C. for 48 h. After 48 h, 10 μL of a cell proliferation staining reagent (CCK8) was added to each well, the plates were incubated in a cell incubator for around 2 h, and an absorbance at 450 nm was detected.
(§2) Cell survival rates and median inhibitory concentrations of the drugs on the cells were calculated.
as §1, with “serum+1×P/S+sodium” for “serum+1XP/S+sodium”, “adjusted to an appropriate density.” for “counted.”
(§3) Cell survival rates and median inhibitory concentrations (IC50) of the drugs on the cells were calculated.

[2] = test system: A549 (non-small cell lung cancer); assay: cells; format: cell-based; settings: CCK8, 48 h; for IC50: Homo sapiens, A549
Protocol: as §1, §2
as §1, with “serum+1×P/S+sodium” for “serum+1XP/S+sodium”, “adjusted to an appropriate density.” for “counted.”
as §3

[3] = test system: SJSA-1 (sarcoma tissue); assay: cells; format: cell-based; settings: CCK8, 48 h; for IC50: Homo sapiens, SJSA-1
Protocol: as §1, §2
as §1, with “serum+1×P/S+sodium” for “serum+1XP/S+sodium”, “adjusted to an appropriate density.” for “counted.”
as §3

[4] = test system: SKBR3 (breast cancer tissue); assay: cells; format: cell-based; settings: CCK8, 48 h; for IC50: Homo sapiens, SK-BR-3
Protocol: as §1, §2
as §1, with “serum+1×P/S+sodium” for “serum+1XP/S+sodium”, “adjusted to an appropriate density.” for “counted.”
as §3

[5] = test system: colo320 (colorectal cancer tissue); assay: cells; format: cell-based; settings: CCK8, 48 h, Table 6
Protocol: as §1, with “serum+1×P/S+sodium” for “serum+1XP/S+sodium”, “adjusted to an appropriate density.” for “counted.”
as §3

[6] = test system: sarcoma SJSA-1 tumor model
Protocol: Test objective: To investigate the antitumor efficacy of the above compounds in an animal tumor model of sarcoma SJSA-1.
(§4) Test drug: Polypeptide conjugate, Irinotecan, Belotecan and normal saline control group.
(§5) Test animals: 6-8 weeks old BALB/c mice, all female.
(§6) SJSA-1 cells were purchased from ATCC and cultured in a DMEM medium containing 10% fetal bovine serum at 37° C. in 5% CO2. Passaging was performed every three days, and cells within 15 generations were used. 2×10^7 corresponding cells were injected into right chests of nude mice subcutaneously. After a volume of the tumors reached at least 100 mm^3, the mice were grouped randomly, with three mice in each group. Then treatment was started, and the day when the treatment was started was the first day. […] The control group was administered with normal saline. Administration was performed once a week for three weeks.
as §6

[7] = test system: colo320 colorectal cancer tumor model
Protocol: Test objective: To investigate the antitumor efficacy of the above compounds in an animal tumor model of colo320 colorectal cancer.
as §4, §5
Passaging was performed every three days, and cells within 15 generations were used. 7.5×10^6 corresponding cells were injected into right chests of nude mice subcutaneously. After a volume of the tumors reached at least 120 mm^3, the mice were grouped randomly, with three mice in each group. Then treatment was started, and the day when the treatment was started was the first day. […] The control group was administered with normal saline. Administration was performed once a week for four weeks.

[8] = MTD determination in mice (Examples 27, 36, 44); format: in vivo
From the text: Test animals: 6-8 weeks old mice, all female; mice were grouped randomly, with six mice in each group, administered with drugs at different concentration gradients separately and monitored for 14 d. A mouse was euthanized at a loss of 20% of its initial weight and deemed to have died of poisoning.

[9] = 5 mg/kg once a week for three weeks, Table 2
[10] = 5 mg/kg once a week for three weeks, Table 7
[11] = 5 mg/kg once a week for four weeks, Table 3
[12] = 5 mg/kg once a week for four weeks, Table 8
[13] = Table 13 (Example 42), dose 5 mg/kg, once a week for four weeks, BALB/c mice
[14] = mice, monitored for 14 d, Table 4
[15] = mice, monitored for 14 d, Table 9
[16] = 15 mg/kg once a week for three weeks, Table 2
[17] = 15 mg/kg once a week for three weeks, Table 7
[18] = 15 mg/kg once a week for four weeks, Table 3
[19] = 15 mg/kg once a week for four weeks, Table 8
[20] = Table 13 (Example 42), dose 15 mg/kg, once a week for four weeks, BALB/c mice
[21] = Table 14 (Example 43), dose 15 mg/kg, once a week for four weeks, BALB/c mice

With `CC[C@@]1(O)C(=O)OCc2c1cc1n(c2=O)Cc2c-1nc1ccccc1c2CCNC` [D1] the “IC50 A2780 (ovarian cancer)” value ([1]; Table 1) was 0.018 µg/mL (≈ 0.0444 µM), the “IC50 Ovarian cancer tissue (A2780)” value ([1]; Table 6) was 0.018 µg/mL (≈ 0.0444 µM) and the “IC50 A549 (non-small cell lung cancer)” value ([2]; Table 1) was 0.027 µg/mL (≈ 0.0666 µM). The “IC50 Non-small cell lung cancer tissue (A549)” value ([2]; Table 6) was 0.027 µg/mL (≈ 0.0666 µM), the “IC50 SJSA-1 (sarcoma tissue)” value ([3]; Table 1) was 0.028 µg/mL (≈ 0.0691 µM) and the “IC50 Sarcoma tissue (SJSA-1)” value ([3]; Table 6) was 0.028 µg/mL (≈ 0.0691 µM). For the same compound, the “IC50 SKBR3 (breast cancer tissue)” value ([4]; Table 1) was 0.050 µg/mL (≈ 0.123 µM), the “IC50 Breast cancer tissue (SKBR3)” value ([4]; Table 6) was 0.050 µg/mL (≈ 0.123 µM) and the “IC50 Colorectal cancer tissue (colo320)” value [5] was 0.040 µg/mL (≈ 0.0987 µM). For the same compound, the “Mouse weight (%)” value [6, 9] was −6%, the “SJSA-1 (sarcoma tissue) mean tumor volume (mm^3)” value [6, 9] was 1432 mm^3 and the “SJSA-1 (sarcoma) Growth rate (%)” value [6, 9] was 1235.57%. The “Mouse weight (%)” value [6, 10] was −6%, the “SJSA-1 (sarcoma tissue) growth rate (%)” value [6, 10] was 1235.57% and the “SJSA-1 (sarcoma tissue) mean tumor volume (mm^3)” value [6, 10] was 1432 mm^3. The “Mouse weight (%)” value [7, 11] was −7%, the “colo320 (colorectal cancer cell) growth rate (%)” value (shortened to “colo320 … (%)”) [7, 11] was 1012.22% and the “colo320 (colorectal cancer cell) mean tumor volume (mm^3)” value (“colo320 … (mm^3)” for short) [7, 11] was 1121.1 mm^3. For the same compound, the “Mouse weight (%)” value [7, 12] was −7%, the “colo320 … (%)” value [7, 12] was 1012.22% and the “colo320 … (mm^3)” value [7, 12] was 1121.1 mm^3. For the same compound, the “Mouse weight (%)” value [7, 13] was −7%, the “colo320 … (%)” value [7, 13] was 1012.22% and the “colo320 … (mm^3)” value [7, 13] was 1121.1 mm^3. For the same compound, the MTD [8, 14] was 25 mg/kg and the MTD [8, 15] was 25 mg/kg.
Compound `CCc1c2c(nc3ccc(OC(=O)N4CCC(N5CCCCC5)CC4)cc13)-c1cc3c(c(=O)n1C2)COC(=O)[C@]3(O)CC` [Irinotecan, reference compound] has an IC50 ([1]; Table 1, read-out: IC50 A2780 (ovarian cancer)) of 0.16 µg/mL (≈ 0.273 µM), an IC50 ([1]; Table 6, read-out: IC50 Ovarian cancer tissue (A2780)) of 0.16 µg/mL (≈ 0.273 µM) and an IC50 ([2]; Table 1, read-out: IC50 A549 (non-small cell lung cancer)) of 0.11 µg/mL (≈ 0.187 µM). It also gave an IC50 ([2]; Table 6, read-out: IC50 Non-small cell lung cancer tissue (A549)) of 0.11 µg/mL (≈ 0.187 µM), an IC50 ([3]; Table 1, read-out: IC50 SJSA-1 (sarcoma tissue)) of 0.11 µg/mL (≈ 0.187 µM) and an IC50 ([3]; Table 6, read-out: IC50 Sarcoma tissue (SJSA-1)) of 0.11 µg/mL (≈ 0.187 µM). For the same compound, the IC50 ([4]; Table 1, read-out: IC50 SKBR3 (breast cancer tissue)) was 0.25 µg/mL (≈ 0.426 µM), the IC50 ([4]; Table 6, read-out: IC50 Breast cancer tissue (SKBR3)) was 0.25 µg/mL (≈ 0.426 µM) and the IC50 ([5]; Homo sapiens, COLO 320) was 0.11 µg/mL (≈ 0.187 µM). The “Mouse weight (%)” value [6, 16] was “+17%”, the “SJSA-1 (sarcoma) Growth rate (%)” value [6, 16] was 798.05% and the “Mouse weight (%)” value [6, 17] was “+17%”. For the same compound, the “SJSA-1 (sarcoma tissue) growth rate (%)” value [6, 17] was 798.05%, the “Mouse weight (%)” value [7, 18] was “+35%” and the “colo320 … (%)” value [7, 18] was 815.39%. The “Mouse weight (%)” value [7, 19] was “+35%”, the “colo320 … (%)” value [7, 19] was 815.39% and the “Mouse weight (%)” value [7, 20] was “+35%”. The “colo320 … (%)” value [7, 20] was 815.39%, the “Mouse weight (%)” value [7, 21] was “+35%” and the “colo320 … (%)” value [7, 21] was 815.39%. It also gave an MTD ([8]; female, mouse, in vivo, 'around', read-out: MTD (as stated in dosage instructions)) of ~70 mg/kg, an MTD ([8]; female, mouse, in vivo, Table 15 (Example 44), mice, six per group, monitored for 14 d, read-out: MTD) of 75 mg/kg and an MTD ([8]; female, mouse, in vivo, mice, monitored for 14 d, Table 4, read-out: MTD) of 75 mg/kg. The MTD ([8]; female, mouse, in vivo, mice, monitored for 14 d, Table 9, read-out: MTD) was 75 mg/kg.
For `CC[C@@]1(O)C(=O)OCc2c1cc1n(c2=O)Cc2c-1nc1ccccc1c2CCNC1CCCC1` [D8], the “IC50 A2780 (ovarian cancer)” value ([1]; Table 1) was 0.015 µg/mL (≈ 0.0326 µM), the “IC50 Ovarian cancer tissue (A2780)” value ([1]; Table 6) was 0.015 µg/mL (≈ 0.0326 µM) and the “IC50 A549 (non-small cell lung cancer)” value ([2]; Table 1) was 0.016 µg/mL (≈ 0.0348 µM). The “IC50 Non-small cell lung cancer tissue (A549)” value ([2]; Table 6) was 0.016 µg/mL (≈ 0.0348 µM), the “IC50 SJSA-1 (sarcoma tissue)” value ([3]; Table 1) was 0.035 µg/mL (≈ 0.0762 µM) and the “IC50 Sarcoma tissue (SJSA-1)” value ([3]; Table 6) was 0.035 µg/mL (≈ 0.0762 µM). The “IC50 SKBR3 (breast cancer tissue)” value ([4]; Table 1) was 0.047 µg/mL (≈ 0.102 µM), the “IC50 Breast cancer tissue (SKBR3)” value ([4]; Table 6) was 0.047 µg/mL (≈ 0.102 µM) and the “IC50 Colorectal cancer tissue (colo320)” value [5] was 0.042 µg/mL (≈ 0.0914 µM). The “Mouse weight (%)” value [6, 9] was “+12%”, the “SJSA-1 (sarcoma tissue) mean tumor volume (mm^3)” value [6, 9] was 1497.5 mm^3 and the “SJSA-1 (sarcoma) Growth rate (%)” value [6, 9] was 1295.77%. The “Mouse weight (%)” value [6, 10] was “+12%”, the “SJSA-1 (sarcoma tissue) growth rate (%)” value [6, 10] was 1295.77% and the “SJSA-1 (sarcoma tissue) mean tumor volume (mm^3)” value [6, 10] was 1497.5 mm^3. For the same compound, the “Mouse weight (%)” value [7, 11] was −6%, the “colo320 … (%)” value [7, 11] was 1082.65% and the “colo320 … (mm^3)” value [7, 11] was 1199.1 mm^3. For the same compound, the “Mouse weight (%)” value [7, 12] was −6%, the “colo320 … (%)” value [7, 12] was 1082.65% and the “colo320 … (mm^3)” value [7, 12] was 1199.1 mm^3. The MTD [8, 14] was 25 mg/kg and the MTD [8, 15] was 25 mg/kg.
